pIC50: −log10 of the molar value. Where a name gives a salt, the structure may show the parent alone.
Legend:
[1] = target: NaV1.1 (Homo sapiens (Human), UniProt P35498); experiment: Sodium Influx Assay (Flux), NaV1.1; type: cell-based; details: Trex HEK293 cells, ANG2 dye; arithmetic mean
[2] = target: NaV1.6 (Homo sapiens (Human), UniProt Q9UQD0); experiment: Sodium Influx Assay (Flux), NaV1.6; details: read-out: Flux NaV1.6 IC50; Trex HEK293 cells, ANG2 dye; arithmetic mean
[3] = target: NaV1.5 (Homo sapiens (Human), UniProt Q14524); experiment: Sodium Influx Assay (Flux), NaV1.5; details: read-out: Flux NaV1.5 IC50; Trex HEK293 cells, ANG2 dye; arithmetic mean
Chain of NaV1.5 (Q14524 other isoform, or with tags, fused parts or gaps): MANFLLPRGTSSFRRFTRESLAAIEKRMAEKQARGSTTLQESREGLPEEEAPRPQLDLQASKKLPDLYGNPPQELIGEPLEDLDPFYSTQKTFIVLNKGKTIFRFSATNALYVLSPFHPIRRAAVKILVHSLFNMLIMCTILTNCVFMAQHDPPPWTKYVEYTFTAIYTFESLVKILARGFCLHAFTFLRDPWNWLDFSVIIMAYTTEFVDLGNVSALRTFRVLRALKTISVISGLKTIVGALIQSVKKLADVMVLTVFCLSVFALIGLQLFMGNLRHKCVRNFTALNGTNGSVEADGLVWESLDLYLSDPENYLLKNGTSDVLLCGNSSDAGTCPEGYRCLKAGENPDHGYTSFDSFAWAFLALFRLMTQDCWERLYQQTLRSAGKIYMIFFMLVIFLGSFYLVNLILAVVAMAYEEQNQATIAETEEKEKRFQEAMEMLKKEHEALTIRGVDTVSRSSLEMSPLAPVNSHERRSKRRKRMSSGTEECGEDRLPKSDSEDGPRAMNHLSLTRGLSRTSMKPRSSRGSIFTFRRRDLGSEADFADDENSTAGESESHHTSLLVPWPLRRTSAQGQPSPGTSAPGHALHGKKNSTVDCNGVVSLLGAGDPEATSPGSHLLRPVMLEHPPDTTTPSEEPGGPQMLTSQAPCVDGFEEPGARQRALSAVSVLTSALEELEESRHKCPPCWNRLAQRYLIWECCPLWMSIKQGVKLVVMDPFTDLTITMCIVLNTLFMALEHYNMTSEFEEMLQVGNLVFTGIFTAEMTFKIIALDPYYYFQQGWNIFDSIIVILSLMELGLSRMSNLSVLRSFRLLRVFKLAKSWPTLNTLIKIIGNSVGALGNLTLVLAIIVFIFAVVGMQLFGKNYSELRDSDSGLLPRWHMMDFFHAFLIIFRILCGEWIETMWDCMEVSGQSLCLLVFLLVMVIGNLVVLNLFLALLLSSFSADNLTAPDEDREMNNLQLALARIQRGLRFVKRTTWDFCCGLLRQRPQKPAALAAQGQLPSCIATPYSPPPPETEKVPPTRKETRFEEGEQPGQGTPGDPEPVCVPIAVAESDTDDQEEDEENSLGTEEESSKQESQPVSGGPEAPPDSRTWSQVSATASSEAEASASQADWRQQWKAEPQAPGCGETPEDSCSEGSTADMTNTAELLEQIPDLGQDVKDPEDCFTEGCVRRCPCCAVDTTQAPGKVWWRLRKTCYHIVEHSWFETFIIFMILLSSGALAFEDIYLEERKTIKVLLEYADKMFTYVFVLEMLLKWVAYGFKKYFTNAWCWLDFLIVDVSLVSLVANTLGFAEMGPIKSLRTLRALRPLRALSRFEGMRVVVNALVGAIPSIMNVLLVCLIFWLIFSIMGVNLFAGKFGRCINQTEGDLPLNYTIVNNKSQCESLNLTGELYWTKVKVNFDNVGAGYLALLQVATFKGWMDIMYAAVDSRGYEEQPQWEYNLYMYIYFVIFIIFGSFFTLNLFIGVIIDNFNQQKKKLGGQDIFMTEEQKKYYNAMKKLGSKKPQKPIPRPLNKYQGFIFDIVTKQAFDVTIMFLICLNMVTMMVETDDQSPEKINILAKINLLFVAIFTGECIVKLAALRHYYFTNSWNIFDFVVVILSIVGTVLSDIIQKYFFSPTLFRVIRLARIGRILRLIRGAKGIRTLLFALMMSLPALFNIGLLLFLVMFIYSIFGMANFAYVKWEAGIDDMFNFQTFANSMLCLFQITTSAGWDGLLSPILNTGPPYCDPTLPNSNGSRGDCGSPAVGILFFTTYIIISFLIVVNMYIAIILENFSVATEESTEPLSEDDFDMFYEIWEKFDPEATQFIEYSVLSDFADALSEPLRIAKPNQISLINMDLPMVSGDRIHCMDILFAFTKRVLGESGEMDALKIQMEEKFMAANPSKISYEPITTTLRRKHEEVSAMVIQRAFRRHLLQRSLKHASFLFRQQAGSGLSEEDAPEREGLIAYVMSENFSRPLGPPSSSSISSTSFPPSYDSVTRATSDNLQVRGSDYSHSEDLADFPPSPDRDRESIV

pIC50 [1] | pIC50 [2] | Structure (SMILES) | pIC50 [3]
4.53 | 6.03 | C[C@H](c1ccccc1)N1CCC(Oc2ccc(S(=O)(=O)Nc3cscn3)c(F)c2F)CC1 [Example 313, (R)-2,3-difluoro-4-((1-(1-phenylethyl)piperidin-4-yl)oxy)-N-(thiazol-4-yl)benzenesulfonamide formate] | < 4.52
4.57 | 5.77 | CN(c1cc(F)c(S(=O)(=O)Nc2cscn2)cc1Cl)[C@H]1CCN(Cc2cccc(C(F)F)n2)C1 [Example 160, (S)-5-chloro-4-((1-((6-(difluoromethyl)pyridin-2-yl)methyl)pyrrolidin-3-yl)(methyl)amino)-2-fluoro-N-(thiazol-4-yl)benzenesulfonamide] | < 4.52
4.99 | 5.94 | CN(c1cc(F)c(S(=O)(=O)Nc2cscn2)cc1Cl)[C@H]1CCN(Cc2cccc(Cl)c2F)C1 [Example 205, (S)-5-chloro-4-((1-(3-chloro-2-fluorobenzyl)pyrrolidin-3-yl)(methyl)amino)-2-fluoro-N-(thiazol-4-yl)benzenesulfonamide] | 5.10
4.81 | 5.63 | CN(c1ccc(S(=O)(=O)Nc2cscn2)cc1C(F)(F)F)[C@H]1CCN(Cc2ccccc2)C1 [Example 294, (S)-4-((1-benzylpyrrolidin-3-yl)(methyl)amino)-N-(thiazol-4-yl)-3-(trifluoromethyl)benzenesulfonamide formate] | 4.78
5.05 | 6.23 | Cc1cccc(CN2CC[C@H](N(C)c3cc(F)c(S(=O)(=O)Nc4cscn4)cc3Cl)C2)c1F [Example 191, (S)-5-chloro-2-fluoro-4-((1-(2-fluoro-3-methylbenzyl)-pyrrolidin-3-yl)(methyl)amino)-N-(thiazol-4-yl)benzene-sulfonamide] | 5.09
5.34 | 6.09 | CN(c1cc(F)c(S(=O)(=O)Nc2cscn2)cc1Cl)[C@H]1CCN(Cc2c(F)cccc2Cl)C1 [Example 169, (S)-5-chloro-4-((1-(2-chloro-6-fluorobenzyl)pyrrolidin-3-yl)(methyl)amino)-2-fluoro-N-(thiazol-4-yl)benzene-sulfonamide 2,2,2-trifluoroacetate] | 5.28
4.77 | 6.52 | CN(c1ccc(S(=O)(=O)Nc2ncns2)cc1Cl)[C@H]1CCN(Cc2ccccc2Cl)C1 [Example 252, (S)-3-chloro-4-((1-(2-chlorobenzyl)pyrrolidin-3-yl)(methyl)amino)-N-(1,2,4-thiadiazol-5-yl)benzenesulfonamide 2,2,2-trifluoroacetate] | 5.09
< 4.52 | 6.52 | CN(c1ccc(S(=O)(=O)Nc2ncns2)cc1Cl)[C@H]1CCN(Cc2c(F)cccc2F)C1 [Example 326, (S)-3-chloro-4-((1-(2,6-difluorobenzyl)pyrrolidin-3-yl)(methyl)amino)-N-(1,2,4-thiadiazol-5-yl)benzenesulfonamide] | 4.61
< 4.52 | 6.49 | Cc1c(OC2CCN(Cc3ccccc3)CC2)ccc(S(=O)(=O)Nc2cscn2)c1F [Example 299, 4-((1-benzylpiperidin-4-yl)oxy)-2-fluoro-3-methyl-N-(thiazol-4-yl)benzenesulfonamide hydrochloride] | 4.57
5.17 | 5.77 | O=S(=O)(Nc1nccs1)c1ccc(OC2CCN(Cc3ccccc3Cl)CC2)c(Cl)c1 [Example 13, 3-chloro-4-((1-(2-chlorobenzyl)piperidin-4-yl)oxy)-N-(thiazol-2-yl)benzenesulfonamide] | 5.29
< 4.52 | 5.43 | Cc1ccnc(CN2CC[C@H](N(C)c3cc(F)c(S(=O)(=O)Nc4cscn4)cc3Cl)C2)c1 [Example 216, (S)-5-chloro-2-fluoro-4-(methyl(1-((4-methylpyridin-2-yl)methyl)pyrrolidin-3-yl)amino)-N-(thiazol-4-yl)benzenesulfonamide] | < 4.52
5.34 | 5.25 | CN(c1cc(F)c(S(=O)(=O)Nc2cscn2)cc1Cl)[C@H]1CCN(Cc2ccc(Br)cc2)C1 [Example 217, (S)-4-((1-(4-bromobenzyl)pyrrolidin-3-yl)(methyl)amino)-5-chloro-2-fluoro-N-(thiazol-4-yl)benzenesulfonamide] | 5.17
4.59 | 4.92 | O=S(=O)(Nc1ncns1)c1ccc(O[C@@H]2CCN(Cc3ccccc3)C2)c(Cl)c1 [Example 96, (R)-4-(1-benzylpyrrolidin-3-yloxy)-3-chloro-N-(1,2,4-thiadiazol-5-yl)benzenesulfonamide 2,2,2-trifluoroacetate] | < 4.52
4.57 | 5.77 | Cc1cc(S(=O)(=O)Nc2cscn2)c(F)cc1N(C)[C@H]1CCN(Cc2cc3ccccn3n2)C1 [Example 122, (S)-2-fluoro-5-methyl-4-(methyl(1-(pyrazolo[1,5-a]pyridin-2-ylmethyl)pyrrolidin-3-yl)amino)-N-(thiazol-4-yl)benzenesulfonamide] | 4.62
5.16 | 5.21 | O=S(=O)(Nc1cscn1)c1cc(Cl)c(O[C@H]2CCN(Cc3cccc(C(F)F)c3)C[C@H]2F)cc1F [Example 162, 5-chloro-4-(((3R,4S)-1-(3-(difluoromethyl)benzyl)-3-fluoropiperidin-4-yl)oxy)-2-fluoro-N-(thiazol-4-yl)benzenesulfonamide] | 5.24
5.13 | 6.24 | O=S(=O)(Nc1nccs1)c1ccc(OC2CCN(Cc3cccc(F)c3)CC2)c(Cl)c1 [Example 81, 3-chloro-4-(1-(3-fluorobenzyl)piperidin-4-yloxy)-N-(thiazol-2-yl)benzenesulfonamide] | 5.14
6.25 | 6.19 | Cc1cc(S(=O)(=O)Nc2cscn2)c(F)cc1N(C)[C@H]1CCN(Cc2csc(-c3ccccc3)n2)C1 [Example 135, (S)-2-fluoro-5-methyl-4-(methyl(1-((2-phenylthiazol-4-yl)methyl)pyrrolidin-3-yl)amino)-N-(thiazol-4-yl)benzenesulfonamide] | 5.78
5.34 | 6.07 | O=S(=O)(Nc1cscn1)c1ccc(OC2CCN(Cc3cccc(C(F)F)c3)CC2)c(Cl)c1 [Example 232, 3-chloro-4-((1-(3-(difluoromethyl)benzyl)piperidin-4-yl)oxy)-N-(thiazol-4-yl)benzenesulfonamide formate] | 5.42
5.63 | 5.73 | CCCc1ccc(CN2CC[C@H](N(C)c3cc(F)c(S(=O)(=O)Nc4cscn4)cc3Cl)C2)cc1 [Example 171, (S)-5-chloro-2-fluoro-4-(methyl(1-(4-propylbenzyl)-pyrrolidin-3-yl)amino)-N-(thiazol-4-yl)benzene-sulfonamide] | 5.30
5.24 | 5.38 | Cc1cccc(C)c1CN1CC[C@H](N(C)c2cc(F)c(S(=O)(=O)Nc3cscn3)cc2Cl)C1 [Example 203, (S)-5-chloro-4-((1-(2,6-dimethylbenzyl)pyrrolidin-3-yl)(methyl)amino)-2-fluoro-N-(thiazol-4-yl)benzenesulfonamide] | 5.17

Structure (SMILES) | pIC50 [1] | pIC50 [2] | pIC50 [3]
CC(c1ccccc1)N1CCC(Oc2cc(F)c(S(=O)(=O)Nc3nccs3)cc2Cl)CC1 (stereo not drawn) [Example 54, 5-chloro-2-fluoro-4-((1-(1-phenylethyl)piperidin-4-yl)oxy)-N-(thiazol-2-yl)benzenesulfonamide] | 5.00 | 6.81 | 4.78
Cc1cc(S(=O)(=O)Nc2cscn2)c(F)cc1N(C)[C@H]1CCN([C@H]2C[C@@H](c3ccccc3)C2)C1 [Example 109, 2-fluoro-5-methyl-4-(methyl((S)-1-((1s,3R)-3-phenylcyclobutyl)-pyrrolidin-3-yl)amino)-N-(thiazol-4-yl)benzenesulfonamide formate] | 5.70 | 5.95 | 5.55
C[C@H]1C[C@@H](Oc2ccc(S(=O)(=O)Nc3nccs3)cc2Cl)CCN1Cc1ccccc1 (relative stereo) [Example 72, 4-((cis-1-benzyl-2-methylpiperidin-4-yl)oxy)-3-chloro-N-(thiazol-2-yl)benzenesulfonamide] | 5.17 | 5.22 | 4.87
CN(c1cc(F)c(S(=O)(=O)Nc2cscn2)cc1Cl)[C@@H]1CCN(Cc2ccccc2)C1 [Example 262, (R)-4-((1-benzylpyrrolidin-3-yl)(methyl)amino)-5-chloro-2-fluoro-N-(thiazol-4-yl)benzenesulfonamide] | 4.60 | 4.88 | 4.54
O=S(=O)(Nc1nccs1)c1ccc(OC2CCN(Cc3ccc(C(F)(F)F)cc3)CC2)c(Cl)c1 [Example 23, 3-chloro-N-(thiazol-2-yl)-4-((1-(4-(trifluoromethyl)benzyl)piperidin-4-yl)oxy)benzenesulfonamide 2,2,2-trifluoroacetate] | < 4.52 | < 4.52 | 4.53
Cc1c(N(C)[C@H]2CCN(Cc3cccc(F)c3F)C2)cc(F)c(S(=O)(=O)Nc2cscn2)c1F [Example 237, (S)-4-((1-(2,3-difluorobenzyl)pyrrolidin-3-yl)(methyl)amino)-2,6-difluoro-3-methyl-N-(thiazol-4-yl)benzenesulfonamide formate] | 5.07 | 7.19 | 4.83
Cc1cc(C)cc(CN2CC[C@@H](Oc3ccc(S(=O)(=O)Nc4ncns4)cc3Cl)C2)c1 [Example 98, (R)-3-chloro-4-(1-(3,5-dimethylbenzyl)pyrrolidin-3-yloxy)-N-(1,2,4-thiadiazol-5-yl)benzenesulfonamide 2,2,2-trifluoroacetate] | 4.66 | 5.12 | < 4.52

Source: US10246453B2, “Benzenesulfonamide compounds and their use as therapeutic agents” (Xenon Pharmaceuticals Inc., priority 2016, dated 2019)
